Publication PMC8813842 (Clinical Pharmacokinetics, 2021)
“Also recorded” adds a separate entry of the source.

How the values were obtained:
[1] = Population PK of allopurinol and oxypurinol in HIE neonates; format: in vivo, human; settings: for Patients reaching the predefined AUC12 target: ALBINO study; for AUC: human, plasma, intravenous, 20 mg/kg; for Difference in CL between males and females: sex as covariate on CL; for Difference in CL between TH and non-TH patients: therapeutic hypothermia as categorical covariate on CL
xanthine oxidase (XO) = xanthine oxidase (XO) (Homo sapiens, UniProt P47989); settings: in the first 24 h after birth
Sequence of xanthine oxidase (XO) (P47989 whole entry): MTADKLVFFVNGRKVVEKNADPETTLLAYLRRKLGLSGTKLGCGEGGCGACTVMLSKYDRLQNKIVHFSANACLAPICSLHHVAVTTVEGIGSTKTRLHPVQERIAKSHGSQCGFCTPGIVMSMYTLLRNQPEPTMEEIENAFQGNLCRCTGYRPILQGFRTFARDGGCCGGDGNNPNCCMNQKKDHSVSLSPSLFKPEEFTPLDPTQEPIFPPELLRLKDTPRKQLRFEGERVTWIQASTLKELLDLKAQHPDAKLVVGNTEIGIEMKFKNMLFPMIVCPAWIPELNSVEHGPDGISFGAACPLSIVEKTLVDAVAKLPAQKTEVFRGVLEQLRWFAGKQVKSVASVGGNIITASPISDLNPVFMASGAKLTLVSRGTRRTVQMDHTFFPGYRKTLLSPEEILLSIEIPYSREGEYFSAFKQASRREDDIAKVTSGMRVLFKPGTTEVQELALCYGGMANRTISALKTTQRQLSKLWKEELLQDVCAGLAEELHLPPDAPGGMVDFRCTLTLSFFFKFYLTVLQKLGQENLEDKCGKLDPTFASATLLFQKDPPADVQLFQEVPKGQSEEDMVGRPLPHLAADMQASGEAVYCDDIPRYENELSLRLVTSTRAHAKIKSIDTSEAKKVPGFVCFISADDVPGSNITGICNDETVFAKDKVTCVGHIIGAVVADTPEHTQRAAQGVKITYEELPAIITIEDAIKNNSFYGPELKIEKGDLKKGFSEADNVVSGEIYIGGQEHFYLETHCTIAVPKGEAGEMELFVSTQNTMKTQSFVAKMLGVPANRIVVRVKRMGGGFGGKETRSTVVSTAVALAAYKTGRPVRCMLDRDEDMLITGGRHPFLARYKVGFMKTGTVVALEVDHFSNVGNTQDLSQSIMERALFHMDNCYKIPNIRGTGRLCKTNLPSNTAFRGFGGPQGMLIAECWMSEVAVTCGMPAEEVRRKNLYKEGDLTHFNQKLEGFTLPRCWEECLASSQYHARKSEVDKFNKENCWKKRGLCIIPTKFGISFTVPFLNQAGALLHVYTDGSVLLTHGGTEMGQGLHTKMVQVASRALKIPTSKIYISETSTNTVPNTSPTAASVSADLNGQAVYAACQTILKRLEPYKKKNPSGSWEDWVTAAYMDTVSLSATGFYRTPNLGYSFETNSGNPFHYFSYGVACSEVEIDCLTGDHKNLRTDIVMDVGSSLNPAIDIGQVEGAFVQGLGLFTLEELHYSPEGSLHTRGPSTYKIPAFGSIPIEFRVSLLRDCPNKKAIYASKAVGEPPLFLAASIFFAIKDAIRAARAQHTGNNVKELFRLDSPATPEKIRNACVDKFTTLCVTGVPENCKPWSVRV

[2] = renal, URAT1 most important transporter; cited from earlier work

SMILES	Patients reaching the predefined AUC12 target ([1]; TH group) [%]	Patients reaching the predefined AUC12 target ([1]; non-TH group)	AUC [1] [ng·h/mL]	Difference in CL between males and females [1]	Difference in CL between TH and non-TH patients [1]	Decrease of estimated allopurinol CL due to autoinhibition (xanthine oxidase (XO)) [%]	Glomerular filtered oxypurinol actively reabsorbed [2]
Oc1ncnc2[nH]ncc12 [allopurinol]	92	all patients reached the targets	160000 ± 62600	No significant difference	No difference; also recorded: no significant differences; also recorded: not significantly different; also recorded: Clearances of allopurinol and oxypurinol were not significantly different between TH and non-TH patients	70	
O=c1[nH]c(=O)c2c[nH]nc2[nH]1 [oxypurinol]	61	all patients reached the targets	37400 ± 12800	No significant difference	No difference; also recorded: no significant differences; also recorded: not significantly different; also recorded: Clearances of allopurinol and oxypurinol were not significantly different between TH and non-TH patients		approximately 80%
